# Reference: patent US20240190890A1, “MK2 INHIBITORS AND USES THEREOF” (Bristol-Myers Squibb Company, priority 2022, published 2024)
# Target: p38a activated, mitogen-activated protein kinase-activated protein kinase 2 (MAPKAP-K2 or MK2) enzyme (Homo sapiens (Human), UniProt P49137)
# Assay: MK2 Omnia continuous-read kinase assay for compound potency
# Type: biochemical
# Settings: [MK-2]=0.4 nM, [ATP]=10 μM, [ST3-Sox]=10 μM; room temperature
# Summary of the method: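 p38a-activated MK2 (0.4 nM) with 10 μM ATP (apparent Km) and 10 μM S/T3-Sox peptide in Tris pH 7.5 buffer with MgCl2, EGTA and DTT. Fluorescence (ex360/em485) read continuously for 120 min at room temperature. IC50 from initial linear slopes; apparent kinact/KI from kobs of exponential progress-curve fits.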
# Chain of p38a activated, mitogen-activated protein kinase-activated protein kinase 2 (MAPKAP-K2 or MK2) enzyme (P49137 whole entry): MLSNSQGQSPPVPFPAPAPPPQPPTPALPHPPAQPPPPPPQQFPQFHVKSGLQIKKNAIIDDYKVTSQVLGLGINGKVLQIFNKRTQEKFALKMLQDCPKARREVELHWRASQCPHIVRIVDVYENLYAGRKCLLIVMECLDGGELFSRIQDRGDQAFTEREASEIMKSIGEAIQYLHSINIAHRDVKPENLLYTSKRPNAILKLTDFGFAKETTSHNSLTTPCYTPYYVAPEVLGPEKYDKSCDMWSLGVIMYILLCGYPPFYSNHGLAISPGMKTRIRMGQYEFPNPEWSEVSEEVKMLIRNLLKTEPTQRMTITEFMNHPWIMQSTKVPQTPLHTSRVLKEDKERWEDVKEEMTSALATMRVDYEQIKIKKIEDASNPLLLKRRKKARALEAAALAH
row,SMILES,IC50 [nM]
1,"C=Cc1ncnn1-c1ccc2c(ccc3sc4c(c32)NC[C@@H](C)NC4=O)n1 [Example I-214, (R)-10-methyl-3-(5-vinyl-1H-1,2,4-triazol-1-yl)-9,10,11,12-tetrahydro-8H-[1,4]diazepino[5′,6′:4,5]thieno[3,2-f]quinolin-8-one]",2
2,"C=Cc1cc(-c2ccc3c(ccc4sc5c(c43)NC[C@@H](C)NC5=O)n2)c(CN2CC3(COC3)C2)cn1 [Example I-263, (R)-3-(5-((2-oxa-6-azaspiro[3.3]heptan-6-yl)methyl)-2-vinylpyridin-4-yl)-10-methyl-9,10,11,12-tetrahydro-8H-[1,4]diazepino[5′,6′:4,5]thieno[3,2-f]quinolin-8-one]",47
3,"C[C@@H]1CNc2c(sc3ccc4nc(-c5cc(Cl)nc(Cl)n5)ccc4c23)C(=O)N1 [Example I-58, (R)-3-(2,6-dichloropyrimidin-4-yl)-10-methyl-9,10,11,12-tetrahydro-8H-[1,4]diazepino[5′,6′:4,5]thieno[3,2-f]quinolin-8-one]",16
4,"C[C@@H]1CNc2c(sc3ccc4nc(-c5cc(Cl)ncc5C#N)ccc4c23)C(=O)N1 [Example I-160, (R)-6-chloro-4-(10-methyl-8-oxo-9,10,11,12-tetrahydro-8H-[1,4]diazepino[5′,6′:4,5]thieno[3,2-f]quinolin-3-yl)nicotinonitrile]",3
5,"C=Cc1cnn(C)c1-c1ccc2c(ccc3sc4c(c32)NC[C@@H](C)NC4=O)n1 [Example I-146, (R)-10-methyl-3-(1-methyl-4-vinyl-1H-pyrazol-5-yl)-9,10,11,12-tetrahydro-8H-[1,4]diazepino[5′,6′:4,5]thieno[3,2-f]quinolin-8-one]",499
6,"C[C@@H]1CNc2c(sc3ccc4nc(-c5cc(Cl)nc(COC6CCN(C)CC6)n5)ccc4c23)C(=O)N1 [Example I-15, (R)-3-(6-chloro-2-(((1-methylpiperidin-4-yl)oxy)methyl)pyrimidin-4-yl)-10-methyl-9,10,11,12-tetrahydro-8H-[1,4]diazepino[5′,6′:4,5]thieno[3,2-f]quinolin-8-one]",10
7,"C=Cc1nc2c(c(-c3ccc4c(ccc5sc6c(c54)NC[C@@H](C)NC6=O)n3)n1)CN(C)CC2 [Example I-191, (R)-10-methyl-3-(6-methyl-2-vinyl-5,6,7,8-tetrahydropyrido[4,3-d]pyrimidin-4-yl)-9,10,11,12-tetrahydro-8H-[1,4]diazepino[5′,6′:4,5]thieno[3,2-f]quinolin-8-one]",289
8,"C=Cc1cc(-c2ccc3c(ccc4sc5c(c43)NC[C@@H](C)NC5=O)n2)c(CN2CC(F)(F)C2)cn1 [Example I-211, (R)-3-(5-((3,3-difluoroazetidin-1-yl)methyl)-2-vinylpyridin-4-yl)-10-methyl-9,10,11,12-tetrahydro-8H-[1,4]diazepino[5′,6′:4,5]thieno[3,2-f]quinolin-8-one]",275
